ChEMBL document CHEMBL1158967, “A cytotoxic and antifungal 1,4-naphthoquinone and related compounds from a New Zealand brown algae, Landsburgia quercifolia” (J Nat Prod, 1991)
Values after ≈ are worked out from the molar mass of the structure shown. Active and inactive are the calls of the source. The calls are words filed in the database; no cut-off is given here.

Assays:
P388 = test: Cytotoxicity against mouse P388 cells; type: functional, cell-based
[1] = Cytotoxicity against african green monkey BSC1 cells at 10 ug; type: cell-based; settings: chlorocebus aethiops, bsc-1
Poliovirus 1 = test: Antiviral activity against Poliovirus type 1 in african green monkey BSC1 cells assessed as inhibition of virus-induced cytopathic effect; type: functional, organism-based; settings: BSC-1
Human alphaherpesvirus 1 = test: Antiviral activity against HSV1 in african green monkey BSC1 cells assessed as inhibition of virus-induced cytopathic effect; type: functional, organism-based; settings: BSC-1
Bacillus subtilis = test: Antimicrobial activity against Bacillus subtilis at 60 ug/disk; type: functional, organism-based
Candida albicans = test: Antimicrobial activity against Candida albicans at 60 ug/disk; type: functional, organism-based
[2] = system: Trichophyton mentagrophytes; test: Antimicrobial activity against Trichophyton mentagrophytes at 60 ug/disk; type: functional, organism-based
Escherichia coli = test: Antimicrobial activity against Escherichia coli at 60 ug/disk; type: functional, organism-based
Pseudomonas aeruginosa = test: Antimicrobial activity against Pseudomonas aeruginosa at 60 ug/disk; type: functional, organism-based

SMILES | IC50 (P388) [µg/mL] | Activity [1] | Activity (Poliovirus 1) | Activity (Human alphaherpesvirus 1) | Activity (Bacillus subtilis) | Activity (Candida albicans) | Activity [2] | Activity (Escherichia coli) | Activity (Pseudomonas aeruginosa)
COc1cc(CC=C(C)C)c(OC)c2ccccc12 | > 25 | – | – | – | – | – | – | – | –
CC(C)=CCC12OC1C(=O)c1ccccc1C2=O (configuration not stated) | 0.8 (≈ 3.3 µM) | Active | inactive | inactive | Active | Active | Active | inactive | inactive
CC(C)=CCC1(CC=C(C)C)CC(=O)c2ccccc2C1=O | > 12.5 | – | – | – | – | – | – | – | –
COC1(OC)c2ccccc2C(=O)C2(CC=C(C)C)OC21 (racemic) | > 12.5 | – | – | – | – | – | – | – | –
CC(C)=CCC1=CC(=O)c2ccccc2C1=O [DEOXYLAPACHOL] | 0.6 (≈ 2.65 µM) | Active | inactive | inactive | Active | Active | Active | inactive | inactive
CC(C)=CCC1=C(O)C(=O)c2ccccc2C1=O [LAPACHOL] | 0.2 (≈ 0.826 µM) | – | – | – | – | – | – | – | –
